Results taken from patent publication US4239780A, “Phospholipase A2 inhibition” (The Upjohn Company, priority 1979, dated 1980).
Where a name gives a salt, the structure may show the parent alone.

What was measured:
[1] = target: T1, HOG PANCREAS PHOSPHOLIPASE A2 (Sus scrofa, UniProt P00592); assay: coupled phospholipase A2 / soybean lipoxygenase oxygen consumption assay, hog pancreas enzyme; format: biochemical; settings: estimated I50 calculated from a partial inhibition value, pH 8.5, 37° C.
T1 construct: from tissue; host or cells: hog pancreas

[2] = target: T2, HUMAN PLATELET PHOSPHOLIPASE A2 (Homo sapiens, UniProt P47712); assay: inhibition of collagen-induced aggregation of human platelets; format: cell-based; settings: human platelet rich plasma, read-out: I50 collagen (converted)
T2 construct: Human blood was drawn from an antecubital vein into 3.8% sodium citrate; endogenous in cells; host or cells: human platelets in citrated plasma (PRP)
T2 sequence (P47712 1-749): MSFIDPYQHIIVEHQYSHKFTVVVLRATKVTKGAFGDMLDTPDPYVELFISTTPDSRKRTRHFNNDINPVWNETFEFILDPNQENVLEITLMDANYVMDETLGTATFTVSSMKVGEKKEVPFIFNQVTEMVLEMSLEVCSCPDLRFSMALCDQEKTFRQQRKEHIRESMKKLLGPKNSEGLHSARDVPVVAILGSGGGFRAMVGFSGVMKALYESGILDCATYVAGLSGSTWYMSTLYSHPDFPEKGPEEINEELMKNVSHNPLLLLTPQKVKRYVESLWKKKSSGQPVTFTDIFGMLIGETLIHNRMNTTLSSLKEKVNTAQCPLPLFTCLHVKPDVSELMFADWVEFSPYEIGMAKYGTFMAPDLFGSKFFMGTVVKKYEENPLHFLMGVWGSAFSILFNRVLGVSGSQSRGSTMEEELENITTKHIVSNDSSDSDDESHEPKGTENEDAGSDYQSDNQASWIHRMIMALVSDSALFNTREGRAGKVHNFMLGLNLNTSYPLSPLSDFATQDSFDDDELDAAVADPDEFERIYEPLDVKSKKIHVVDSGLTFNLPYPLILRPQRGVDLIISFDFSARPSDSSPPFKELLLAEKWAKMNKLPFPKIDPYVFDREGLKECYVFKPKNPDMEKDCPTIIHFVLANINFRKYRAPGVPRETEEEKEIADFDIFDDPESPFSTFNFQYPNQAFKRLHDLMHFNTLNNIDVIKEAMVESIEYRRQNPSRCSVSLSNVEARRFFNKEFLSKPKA
Protocol: The compounds of the present invention were tested for their ability to inhibit collagen-induced aggregation of platelets at 100 μg. per ml. or less. The compounds that were active against collagen-induced aggregation were tested at the I50 dose against arachidonic acid-induced aggregation. Compounds that inhibited collagen-induced aggregation, but not arachidonic acid-induced aggregation, were reported as active phospholipase A2 inhibitors.
The test was run as follows. Human blood was drawn from an antecubital vein into 3.8% sodium citrate with the final citrate concentration being 0.38%. The blood was transferred to plastic centrifuge tubes and centrifuged at 200×g for 10 min. This yielded […] (PRP). This PRP was allowed to stand for 30 min. for testing at which point it was tested against 400 μg. per ml. of arachidonic acid. […] If the platelets aggregated to arachidonic acid, a dose of collagen that gave a substantial irreversible aggregation (approximately 60-80% transmission) was established. It was then attempted to block the response of collagen with 10 μg. per ml. of indomethacin. […] The ID50 for all unknown compounds was then established. Most of the compounds were tested at rather high concentrations and it was often necessary to place the compound in ethanol into the aggregation cuvet and evaporate the ethanol before testing.
Those that were reported as active were tested at the ID50 dose against 400 μg per ml. of arachidonic acid. […] The compounds are shown to inhibit phospholipase A2 from humans at low dosages.

[3] = system: UV induced erythema; assay: UV induced erythema on the skin of guinea pigs; format: in vivo, guinea pig; settings: for erythema score, 1 hour / erythema score, 2 hours / erythema score, 3 hours / erythema score, 4 hours / erythema score, 24 hours: aggregate score for 3 animals; for erythema score, (After 4 hours) Total Points / erythema score, (After 24 hours) Total Points: aggregate for 3 animals
Protocol: Some of the compounds of this invention were tested in vivo for their ability to inhibit the effects of UV induced erythema on the skin of guinea pigs. This is an example of an inflammatory process fulfilling the four pathological requirements of "rubor, calor, dolor, and tumor" i.e., reddening, heat, pain, and edematious swelling in the skin. Administration of the compounds of this invention to guinea pigs whose skin was subsequently exposed to ultraviolet light markedly retarded and in some cases eliminated altogether this inflammatory process. Administration of the compounds of this invention was performed both interparenterally and subcutaneously with equivalent results, thereby eliminating any possiblity of reduction in erthyma due to the so called "counter irritant" effect on the serosal soft surface of the gut.
The test was carried out as follows: Guinea pigs of the Hartley strain ranging in weight from 250 to 750 gm. were clipped with coarse and fine clippers to remove as much hair as possible from the back or abdomen. They were then treated with a commercial depilatory for six to seven min. after which they were washed with warm water. The animals were then injected I.P. or subcutaneously with solutions or suspensions of the test compounds made up at 0.02 molar concentrations. The dose was 0.3 ml. per 100 gm. of body weight. A control (untreated) group was also maintained. The animals were then held for 30 min. before being exposed as rapidly as possible to ultra-violet light using a Kromayer lamp for 30 sec. A scoring system was developed to quantitate the erythema. The scoring was from 0 to 5 and is described as follows:
0=no apparent reddening of the skin
0.5=some slight reddening, without a definite border
1.0=a discrete pink circle with a definite border
2.0=a discrete circle of redness with a definite border more intense than 1.0
3.0=same circle with still greater intensity
4.0=same circle with a near maximal response but without any raising of the erythematous spot above the level of the surrounding skin
5.0=a raised edematous circle with the redness at maximal intensity
The animals were scored at hourly intervals for the first four hours. The erythema reached a maximum at this time in the control animals. The major difference between results at 4 hr. and those at 24 is the developement of edema and this occurred in some of the animals treated with phospholipase inhibitors without erythema being present. The results of this test are shown in tabular form in Tables VI and VII. The aggregate scores of the animals treated with the designated compounds are recorded at hourly intervals and compared with the control (untreated) scores. As shown by the tables, the method of this invention markedly retarded UV-induced erythema.

[4] = target: SNAKE VENOM PHOSPHOLIPASE A2; assay: coupled phospholipase A2 / soybean lipoxygenase oxygen consumption assay, snake venom enzyme; format: biochemical; settings: estimated I50 calculated from a partial inhibition value, pH 8.5, 37° C.
[5] = target: BEE VENOM PHOSPHOLIPASE A2 (Apis mellifera, UniProt P00630); assay: biochemical; settings: pH 8.5, 37° C.
[6] = intraperitoneal, 23-25.2 mg/kg given 30 min. before UV, control 12
[7] = intraperitoneal, 23-25.2 mg/kg given 30 min. before UV, control 18
[8] = intraperitoneal, 23-25.2 mg/kg given 30 min. before UV, control 24
[9] = intraperitoneal, 23-25.2 mg/kg given 30 min. before UV, control 30
[10] = intraperitoneal, 23-25.2 mg/kg given 30 min. before UV, control 50
[11] = intraperitoneal, 23-25.2 mg/kg, control 78
[12] = intraperitoneal, 23-25.2 mg/kg, control 128
[13] = subcutaneous, 60.9-66.1 mg/kg given 30 min. before UV, control 17
[14] = subcutaneous, 60.9-66.1 mg/kg given 30 min. before UV, control 23
[15] = subcutaneous, 60.9-66.1 mg/kg given 30 min. before UV, control 29
[16] = subcutaneous, 60.9-66.1 mg/kg given 30 min. before UV, control 34
[17] = subcutaneous, 60.9-66.1 mg/kg given 30 min. before UV, control 56
[18] = subcutaneous, 60.9-66.1 mg/kg, control 103
[19] = subcutaneous, 60.9-66.1 mg/kg, control 158

T1 sequence (P00592 23-146): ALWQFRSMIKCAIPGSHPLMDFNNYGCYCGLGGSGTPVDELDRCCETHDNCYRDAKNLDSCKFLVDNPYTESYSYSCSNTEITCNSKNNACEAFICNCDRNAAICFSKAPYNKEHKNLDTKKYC
Sequence of UniProt P00630 (P00630 34-167 limits assumed): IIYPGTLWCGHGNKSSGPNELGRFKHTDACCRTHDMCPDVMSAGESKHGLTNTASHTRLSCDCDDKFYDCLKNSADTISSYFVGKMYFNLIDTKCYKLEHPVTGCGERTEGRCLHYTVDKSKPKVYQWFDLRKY

SMILES | IC50 [1] | IC50 [2] | erythema score, 1 hour [3, 6] | erythema score, 2 hours [3, 7] | erythema score, 3 hours [3, 8] | erythema score, 4 hours [3, 9] | erythema score, 24 hours [3, 10] | erythema score, (After 4 hours) Total Points [3, 11] | erythema score, (After 24 hours) Total Points [3, 12] | erythema score, 1 hour [3, 13] | erythema score, 2 hours [3, 14] | erythema score, 3 hours [3, 15] | erythema score, 4 hours [3, 16] | erythema score, 24 hours [3, 17] | erythema score, (After 4 hours) Total Points [3, 18] | erythema score, (After 24 hours) Total Points [3, 19] | IC50 [4] | IC50 [5]
O=C(CCCN[C@H]1CC[C@H](c2ccc(C(F)(F)F)cc2)CC1)c1ccc(F)cc1 [A, Butyrophenone, 4'-fluoro-4-[[4-(α,α,α-trifluoro-p-tolyl)-cyclohexyl]amino]-, trans-,] | 5.1 µM |  |  |  |  |  |  |  |  |  |  |  |  |  |  |  |  | 
CO[C@]1(c2ccccc2C)CC[C@H](NCCCC(=O)c2ccc(F)cc2)CC1 [B, Butyrophenone, 4'-fluoro-4-[(c-4-methoxy-4-o-tolylcyclohexyl)-amino]-, hydrochloride, hemihydrate] | 10.7 µM | 183 µM | 3 | 5 | 5 | 2 | 36 | 15 | 51 | 8 | 7 | 6 | 13 | 33 | 34 | 66 |  | 
CO[C@]1(c2ccccc2C)CC[C@@H](NCCCC(=O)c2ccc(F)cc2)CC1 [C, Butyrophenone, 4'-fluoro-4-[(t-4-methoxy-4-o-tolylcyclohexyl)-amino]-, hydrochloride] | 11.8 µM | 196 µM | 8 | 13 | 12 | 12 | 27 | 45 | 72 | 10 | 11 | 9 | 10 | 40 | 39 | 79 | 301 µM | 404 µM
CO[C@]1(c2ccc(C)cc2)CC[C@H](NCCCC(=O)c2ccc(F)cc2)CC1 [D, Butyrophenone, 4'-fluoro-4-[(c-4-methoxy-4-p-tolyl-r-1-cyclohexyl)amino]-, hydrochloride] | 14.9 µM | 261 µM |  |  |  |  |  |  |  |  |  |  |  |  |  |  |  | 
O=C(CCCN[C@H]1CC[C@](CO)(c2ccccc2)CC1)c1ccc(Cl)cc1 [E, Butyrophenone, 4'-chloro-4-[[c-4-(hydroxy-methyl)-4-phenyl-r-1-yclohexyl]amino]-, hydrochloride] | 29.8 µM |  |  |  |  |  |  |  |  |  |  |  |  |  |  |  |  | 
CN(CCCC(=O)c1ccc(F)cc1)[C@H]1CC[C@](CO)(c2ccccc2)CC1 [F, Butyrophenone, 4'-fluoro-4-[[c-4-(hydroxy-methyl)-t-4-phenyl-r- -cyclohexyl]methyl-amino]-] | 43.7 µM | 65.2 µM | 14 | 12 | 12 | 17 | 60 | 55 | 105 |  |  |  |  |  |  |  |  | 
O=C(CCCN[C@H]1CC[C@](CO)(c2ccc(Cl)cc2)CC1)c1ccc(F)cc1 [G, Butyrophenone, 4-[[t-4-(p-chlorophenyl)-c-4-(hydroxymethyl)-r-1-cyclo-hexyl]amino]-4'fluoro-, hydrochloride] | 55.3 µM | 74.3 µM |  |  |  |  |  |  |  | 12 | 13 | 9 | 13 | 52 | 46 | 98 |  | 
O=C(CCCNC1CCC(c2ccc(Cl)cc2)CC1)c1ccc(F)cc1 (stereo not drawn) [H, Butyrophenone, 4[[4-(p-chlorophenyl)cyclohexyl]-amino]-4'-fluoro-, hydro-chloride] |  |  |  |  |  |  |  |  |  | 6 | 6 | 7 | 9 | 52 | 28 | 78 |  | 
O=C(CCCN[C@H]1CC[C@](CO)(c2ccccc2)CC1)c1ccc(F)cc1 [I, Butyropehnone, 4'-fluoro-4-[[4-(hydroxymethyl)-4-phenylcyclohexyl]amino]- cis-, hydrochloride] | 24.3 µM |  |  |  |  |  |  |  |  | 2 | 4 | 6 | 7 | 40 | 18 | 58 | 221 µM | 
